# In the supplement of paper PMC4862054:
# What was measured:
# Details in all cases: incubation time: 72 h
# CAL-51 [1] = assay: normalised viability (% of control), CellTiter-Blue; higher = more viable cells (100 = DMSO, 0 = benzethonium chloride kill control)
# Description: (§1)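 DSRT, CellTiter-Blue viability, 72 h incubation. Signal is normalised to DMSO and benzethonium chloride controls. Value is the normalised response at dose 1.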
# HCC1599 [2] = assay: as above
# Description: as §1
# BT-474 [3] = assay: as above
# Description: as §1
# CAL-85-1 [4] = assay: normalised viability (% of control), CellTiter-Blue; higher = more viable cells (about 100 = DMSO control)
# Description: (§2)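 DSRT, CellTiter-Blue viability, 72 h incubation. Signal is normalised to DMSO and benzethonium chloride controls. Value is the normalised response at dose 7.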
# DU-4475 [5] = assay: as above
# Description: as §2
# MDA-MB-453 = assay: as above
# Description: as §2
# CAL-51 [6] = assay: as above
# Description: as §2
# HDQ-P1 [7] = assay: as above
# Description: as §2
# CAL-148 [8] = assay: as above
# Description: as §2
# MCF-10A = assay: drug sensitivity score (DSS), CellTox Green (DSS (AUC-based score)); higher = stronger drug effect (viability inhibition or cytotoxicity); extreme values may be limits of the assay
# How it was run: (§3)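 Using 20 µl of cell suspension per well, breast cancer cell lines were seeded into 384-well plates pre-loaded with compound at 5 concentrations in 10-fold steps across a compound-specific 10,000-fold range. Incubation lasted 72 h, after which CellTox Green fluorescence at 485/520 nm and then CellTiter-Glo luminescence, following 10 min at room temperature, were recorded. Each plate was normalised to 0.1 % DMSO and a positive kill control before the drug sensitivity score was derived from the area under the fitted dose-response curve.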
# CAL-85-1 [9] = assay: as above
# How it was run: as §3
# HCC1937 = assay: as above
# How it was run: as §3
# BT-549 = assay: as above
# How it was run: as §3
# DU-4475 [10] = assay: as above
# How it was run: as §3
# CAL-120 = assay: as above
# How it was run: as §3
# MDA-MB-468 = assay: as above
# How it was run: as §3
# CAL-51 [11] = assay: as above
# How it was run: as §3
# HCC1599 [12] = assay: as above
# How it was run: as §3
# HDQ-P1 [13] = assay: as above
# How it was run: as §3
# HCC1143 = assay: as above
# How it was run: as §3
# CAL-148 [14] = assay: as above
# How it was run: as §3
# BT-474 [15] = assay: as above
# How it was run: as §3
# MDA-MB-231 = assay: as above
# How it was run: as §3
# MFM-223 = assay: as above
# How it was run: as §3
# MDA-MB-436 = assay: as above
# How it was run: as §3
compound,measurement,setting,value
C1CN1c1nc(N2CC2)nc(N2CC2)n1 [Triethylenemelamine],normalised viability,CAL-51 [1]; 1 nM,101%
same,normalised viability,HCC1599 [2]; 1 nM,76.4%
same,normalised viability,BT-474 [3]; 1 nM,117%
same,normalised viability,CAL-85-1 [4]; 1000 nM,98.4%
same,normalised viability,DU-4475 [5]; 1000 nM,102%
same,normalised viability,MDA-MB-453; 1000 nM,94.4%
same,normalised viability,CAL-51 [6]; 1000 nM,104%
same,normalised viability,HDQ-P1 [7]; 1000 nM,102%
same,normalised viability,CAL-148 [8]; 1000 nM,110%
CCN(CC)CCCC(C)Nc1c2ccc(Cl)cc2nc2ccc(OC)cc12 (centres undefined) [Mepacrine],normalised viability,CAL-51 [1]; 0.099 nM,90.8%
same,normalised viability,CAL-51 [1]; 1 nM,97.2%
same,normalised viability,HCC1599 [2]; 0.099 nM,102%
same,normalised viability,HCC1599 [2]; 1 nM,96.2%
same,normalised viability,BT-474 [3]; 0.099 nM,74.2%
same,normalised viability,BT-474 [3]; 1 nM,113%
same,drug sensitivity score,MCF-10A,0
same,drug sensitivity score,CAL-85-1 [9],0
same,drug sensitivity score,HCC1937,0
same,drug sensitivity score,BT-549,0
same,drug sensitivity score,DU-4475 [10],0
same,drug sensitivity score,CAL-120,0
same,drug sensitivity score,MDA-MB-468,0.235
same,drug sensitivity score,CAL-51 [11],0
same,drug sensitivity score,HCC1599 [12],0
same,drug sensitivity score,HDQ-P1 [13],0
same,drug sensitivity score,HCC1143,0
same,drug sensitivity score,CAL-148 [14],0
same,drug sensitivity score,BT-474 [15],0
same,drug sensitivity score,MDA-MB-231,5
same,drug sensitivity score,MFM-223,0
same,drug sensitivity score,MDA-MB-436,0
same,normalised viability,CAL-85-1 [4]; 99 nM,97.8%
same,normalised viability,CAL-85-1 [4]; 1000 nM,90.3%
same,normalised viability,DU-4475 [5]; 99 nM,97.3%
same,normalised viability,DU-4475 [5]; 1000 nM,84.3%
same,normalised viability,MDA-MB-453; 99 nM,97.2%
same,normalised viability,MDA-MB-453; 1000 nM,101%
same,normalised viability,CAL-51 [6]; 99 nM,96.2%
same,normalised viability,CAL-51 [6]; 1000 nM,103%
same,normalised viability,HDQ-P1 [7]; 99 nM,86.9%
same,normalised viability,HDQ-P1 [7]; 1000 nM,84.9%
same,normalised viability,CAL-148 [8]; 99 nM,122%
same,normalised viability,CAL-148 [8]; 1000 nM,81.4%
CC[C@H](Nc1ncnc2[nH]cnc12)c1nc2cccc(F)c2c(=O)n1-c1ccccc1 [CAL-101],normalised viability,CAL-51 [1]; 1 nM,88.6%
same,normalised viability,HCC1599 [2]; 1 nM,82.4%
same,normalised viability,BT-474 [3]; 1 nM,100%
same,normalised viability,CAL-85-1 [4]; 1000 nM,80.5%
same,normalised viability,DU-4475 [5]; 1000 nM,87.8%
same,normalised viability,MDA-MB-453; 1000 nM,87.7%
same,normalised viability,CAL-51 [6]; 1000 nM,81.9%
same,normalised viability,HDQ-P1 [7]; 1000 nM,82.4%
same,normalised viability,CAL-148 [8]; 1000 nM,79.9%
CC(=O)Nc1cccc(-n2c(=O)n(C3CC3)c(=O)c3c(Nc4ccc(I)cc4F)n(C)c(=O)c(C)c32)c1,normalised viability,CAL-51 [1]; 0.025 nM,98.7%
same,normalised viability,HCC1599 [2]; 0.025 nM,104%
same,normalised viability,BT-474 [3]; 0.025 nM,100%
same,normalised viability,CAL-85-1 [4]; 25 nM,60.4%
same,normalised viability,DU-4475 [5]; 25 nM,-0.2%
same,normalised viability,MDA-MB-453; 25 nM,71.8%
same,normalised viability,CAL-51 [6]; 25 nM,69%
same,normalised viability,HDQ-P1 [7]; 25 nM,63.6%
same,normalised viability,CAL-148 [8]; 25 nM,91.2%
O=C(/C=C/c1cccnc1)NCCCCC1CCN(C(=O)c2ccccc2)CC1 [FK-866],normalised viability,CAL-51 [1]; 0.1 nM,101%
same,normalised viability,HCC1599 [2]; 0.1 nM,105%
same,normalised viability,BT-474 [3]; 0.1 nM,99.3%
same,normalised viability,CAL-85-1 [4]; 100 nM,54.6%
same,normalised viability,DU-4475 [5]; 100 nM,6.4%
same,normalised viability,MDA-MB-453; 100 nM,21.1%
same,normalised viability,CAL-51 [6]; 100 nM,44.3%
same,normalised viability,HDQ-P1 [7]; 100 nM,48.9%
same,normalised viability,CAL-148 [8]; 100 nM,53.7%
CCc1cncnc1N1CCN(Cc2nc3ccc(C(F)(F)F)cc3[nH]2)CC1,normalised viability,CAL-51 [1]; 1 nM,90.8%
same,normalised viability,HCC1599 [2]; 1 nM,82.6%
same,normalised viability,BT-474 [3]; 1 nM,102%
same,drug sensitivity score,MCF-10A,0
same,drug sensitivity score,CAL-85-1 [9],0
same,drug sensitivity score,HCC1937,0
same,drug sensitivity score,BT-549,0
same,drug sensitivity score,DU-4475 [10],0
same,drug sensitivity score,CAL-120,0
same,drug sensitivity score,MDA-MB-468,0
same,drug sensitivity score,CAL-51 [11],0
same,drug sensitivity score,HCC1599 [12],0
same,drug sensitivity score,HDQ-P1 [13],0
same,drug sensitivity score,HCC1143,0
same,drug sensitivity score,CAL-148 [14],0
same,drug sensitivity score,BT-474 [15],0
same,drug sensitivity score,MDA-MB-231,0
same,drug sensitivity score,MFM-223,0
same,drug sensitivity score,MDA-MB-436,0
same,normalised viability,CAL-85-1 [4]; 1000 nM,101%
same,normalised viability,DU-4475 [5]; 1000 nM,101%
same,normalised viability,MDA-MB-453; 1000 nM,96.5%
same,normalised viability,CAL-51 [6]; 1000 nM,87%
same,normalised viability,HDQ-P1 [7]; 1000 nM,95.9%
same,normalised viability,CAL-148 [8]; 1000 nM,124%
Cc1cnc(NC(=O)Nc2cc(Br)c(C)cc2OC[C@@H]2CNCCO2)cn1,normalised viability,CAL-51 [1]; 0.1 nM,86.8%
same,normalised viability,HCC1599 [2]; 0.1 nM,114%
same,normalised viability,BT-474 [3]; 0.1 nM,107%
same,normalised viability,CAL-85-1 [4]; 100 nM,85.9%
same,normalised viability,DU-4475 [5]; 100 nM,109%
same,normalised viability,MDA-MB-453; 100 nM,88.7%
same,normalised viability,CAL-51 [6]; 100 nM,91.2%
same,normalised viability,HDQ-P1 [7]; 100 nM,110%
same,normalised viability,CAL-148 [8]; 100 nM,101%
